Data published in ChEMBL document CHEMBL5096210, “Discovery of Betulinic Acid Derivatives as Potent Intestinal Farnesoid X Receptor Antagonists to Ameliorate Nonalcoholic Steatohepatitis” (J Med Chem, 2022).

Assays:
[1] = Cytotoxicity against HEK293T cells cotransfected with pCMV-Script-hFXR/pGL4.11-hSHP-Luciferase incubated for 24 hrs in presence of GW4064 by celltiter-blue cell viability assay; assay type: toxicity, cell-based, HEK-293T; conditions: human
[2] = molecular target: T1, Bile acid receptor (Homo sapiens, UniProt Q96RI1); experiment: Antagonist activity at FXR (unknown origin) expressed in HEK293T cells cotransfected with pCMV-Script-hFXR/pGL4.11-hSHP-Luciferase incubated for 24 hrs in presence of GW4064 by Steady-glo luciferase assay; assay type: cell-based
T1 sequence (Q96RI1 whole entry): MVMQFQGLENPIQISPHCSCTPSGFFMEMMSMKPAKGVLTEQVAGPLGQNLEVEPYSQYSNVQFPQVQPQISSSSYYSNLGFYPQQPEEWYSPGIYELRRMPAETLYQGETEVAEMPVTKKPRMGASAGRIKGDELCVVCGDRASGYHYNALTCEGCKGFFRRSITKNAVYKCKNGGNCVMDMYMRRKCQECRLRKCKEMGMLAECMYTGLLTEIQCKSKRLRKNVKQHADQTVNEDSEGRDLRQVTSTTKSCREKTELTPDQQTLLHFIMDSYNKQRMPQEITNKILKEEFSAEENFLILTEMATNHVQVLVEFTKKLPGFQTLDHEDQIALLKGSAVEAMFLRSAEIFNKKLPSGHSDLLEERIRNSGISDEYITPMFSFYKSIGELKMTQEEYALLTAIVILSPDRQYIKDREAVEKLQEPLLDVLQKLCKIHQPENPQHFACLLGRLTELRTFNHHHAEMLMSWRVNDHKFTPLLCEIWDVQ

IC50 [2] [µM]	Compound	IC50 at 24 h [1] [µM]
	CCNS(=O)(=O)O[C@@H]1CC[C@]2(C)[C@H]3CC[C@@H]4[C@H]5[C@H](C(C)C)CC[C@]5(C(=O)NCC(=O)O)CC[C@@]4(C)[C@]3(C)CC[C@H]2C1(C)C	> 100
25.7	CCCC(=O)O[C@@H]1CC[C@]2(C)[C@H]3CC[C@@H]4[C@H]5[C@H]([C@@H](C)C(=O)O)CC[C@]5(C(=O)NCC(=O)O)CC[C@@]4(C)[C@]3(C)CC[C@H]2C1(C)C	97.2
	CCCC(=O)O[C@@H]1CC[C@]2(C)[C@H]3CC[C@@H]4[C@H]5[C@H](C(C)C)CC[C@]5(C(=O)N[C@@H](C)C(=O)O)CC[C@@]4(C)[C@]3(C)CC[C@H]2C1(C)C	37.7
10	CCCC(=O)O[C@@H]1CC[C@]2(C)[C@H]3CC[C@@H]4[C@H]5[C@H](C(C)=O)CC[C@]5(C(=O)NCC(=O)O)CC[C@@]4(C)[C@]3(C)CC[C@H]2C1(C)C	44.3
	CC(C)[C@@H]1CC[C@]2(C(=O)NCC(=O)O)CC[C@]3(C)[C@H](CC[C@@H]4[C@@]5(C)CC[C@@H](OC(=O)c6ccc(F)cc6)C(C)(C)[C@@H]5CC[C@]43C)[C@@H]12	55.7
12.1	CCCC(=O)O[C@@H]1CC[C@]2(C)[C@H]3CC[C@@H]4[C@H]5[C@H](C(C)C)CC[C@]5(C(=O)NCC(=O)NS(C)(=O)=O)CC[C@@]4(C)[C@]3(C)CC[C@H]2C1(C)C	> 100
7.9	CC(C)[C@@H]1CC[C@]2(C(=O)O)CC[C@@H]3[C@H](CC[C@H]4[C@@]3(C)CC[C@H]3C(C)(C)[C@H](O)CC[C@]43C)[C@@H]12	61.7
9.9	CCCC(=O)O[C@@H]1CC[C@]2(C)[C@H]3CC[C@@H]4[C@H]5[C@H](C(C)C)CC[C@]5(C(=O)NCCC(=O)O)CC[C@@]4(C)[C@]3(C)CC[C@H]2C1(C)C	> 100
	CCCC(=O)O[C@@H]1CC[C@]2(C)[C@H]3CC[C@@H]4[C@H]5[C@H](C(=O)CO)CC[C@]5(C(=O)NCC(=O)O)CC[C@@]4(C)[C@]3(C)CC[C@H]2C1(C)C	25.3
1.1	CCCC(=O)O[C@@H]1CC[C@]2(C)[C@H]3CC[C@@H]4[C@H]5[C@H](C(C)C)CC[C@]5(NC(=O)NCC(=O)O)CC[C@@]4(C)[C@]3(C)CC[C@H]2C1(C)C	1.3
14.1	CCCC(=O)O[C@@H]1CC[C@]2(C)[C@H]3CC[C@@H]4[C@H]5[C@H]([C@@H](C)CO)CC[C@]5(C(=O)NCC(=O)O)CC[C@@]4(C)[C@]3(C)CC[C@H]2C1(C)C	> 100

Compound	IC50 [2] [µM]	IC50 at 24 h [1] [µM]
CCOC(=O)O[C@@H]1CC[C@]2(C)[C@H]3CC[C@@H]4[C@H]5[C@H](C(C)C)CC[C@]5(C(=O)NCC(=O)O)CC[C@@]4(C)[C@]3(C)CC[C@H]2C1(C)C	7.3	> 100
CCCCC(=O)O[C@@H]1CC[C@]2(C)[C@H]3CC[C@@H]4[C@H]5[C@H](C(C)C)CC[C@]5(C(=O)NCC(=O)O)CC[C@@]4(C)[C@]3(C)CC[C@H]2C1(C)C	3	> 100
CC(C)[C@@H]1CC[C@]2(C(=O)NCC(=O)O)CC[C@]3(C)[C@H](CC[C@@H]4[C@@]5(C)CC[C@@H](OC(=O)C6CCCC6)C(C)(C)[C@@H]5CC[C@]43C)[C@@H]12	1.6	2
CC(C)[C@@H]1CC[C@]2(C(=O)NCC(=O)O)CC[C@]3(C)[C@H](CC[C@@H]4[C@@]5(C)CC[C@@H](OC(=O)C6CCC6)C(C)(C)[C@@H]5CC[C@]43C)[C@@H]12	4.1	> 100
CCCC(=O)O[C@@H]1CC[C@]2(C)[C@H]3CC[C@@H]4[C@H]5[C@H](C(C)C)CC[C@]5(C(=O)NCCS(=O)(=O)O)CC[C@@]4(C)[C@]3(C)CC[C@H]2C1(C)C	> 100	> 100
CCCC(=O)O[C@H]1CC[C@]2(C)[C@H]3CC[C@@H]4[C@H]5[C@H](C(C)C)CC[C@]5(C(=O)NCC(=O)O)CC[C@@]4(C)[C@]3(C)CC[C@H]2C1(C)C	13	> 100
